The values below come from ChEMBL document CHEMBL1201862, “PubChem BioAssay data set” (2004).

Structures are written as SMILES.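 Dose response: 5 concentrations. Exposure: 48 h. Format: 96-well plates. Endpoint: linear interpolation; highest concentration if not reached. GI50: concentration for 50% inhibition of growth.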 Calls of active or inactive are those of the source. No stated cut-off is given here; in the data, active = GI50 up to about 1.1 µM and inactive = higher.

Experiment in all cases: growth of human tumour cells (NCI), 48 h
For assay [1], the system named is BT-549.
Assay [2] concerns MDA-MB-435.
Assay [3] has as its system SK-MEL-28.
For assay [4], the system named is RPMI-8226.
In assay [5] the test system is RXF 393.
Assay [6] has as its system MCF7.
Assay [7] deals with HL-60.
The test system of assay [8] is UACC-62.
Assay [9] has as its system OVCAR-5.
The test system of assay [10] is ACHN.
Assay [11] deals with U-251.
Assay [12] deals with UO-31.
Assay [13] has as its system NCI/ADR-RES.
In assay [14] the test system is SW-620.
For assay [15], the system named is SK-MEL-2.
In assay [16] the test system is SF-268.
Assay [17] relates to SNB-19.
For assay [18], the system named is IGROV-1.
The subject of assay [19] is NCI-H226.
Assay [20] concerns LOX IMVI.

For the compound `O=C1N[C@H]2c3c(Cl)sc(Cl)c3[C@@H](O)[C@H]2O1`, the GI50 in assay [1], in assay [2], in assay [3], in assay [4], in assay [5] and in [6] was > 100 µM (inactive) each time. The GI50 in assay [7], in [8], in assay [9], in [10], in [11] and in assay [12] was > 100 µM (inactive) each time. Besides, the GI50 in assay [13], in [14], in [15], in [16], in assay [17] and in [18] was > 100 µM (inactive) each time.

As for `CC(C(=O)NCNC(=O)c1ccccc1)C(=O)NCc1ccccc1` (centres undefined), the GI50 in [1], in assay [2], in assay [4], in assay [5], in assay [6] and in [7] was > 100 µM (inactive) each time. Moreover, the GI50 in [8], in [9], in assay [10], in assay [11], in [12] and in [13] was > 100 µM (inactive) throughout. Also, the GI50 in assay [14], in [15], in [16], in assay [17], in assay [19] and in assay [18] was > 100 µM (inactive) throughout.

On to `CCOC(=O)C1=C(C)NC(C)=C(C(=O)OCC)C1c1ccc(Cl)cc1`, for which the GI50 is 17.1 µM (inactive) in assay [1]; 14.4 µM (inactive) in assay [2]; 20.4 µM (inactive) in [3]; 9.48 µM (inactive) in assay [4]; 14.1 µM (inactive) in assay [5]; 17.1 µM (inactive) in [6]. For the same compound, the GI50 is 0.774 µM (active) in assay [7]; 12.1 µM (inactive) in assay [8]; 13.4 µM (inactive) in assay [9]; 16 µM (inactive) in [10]; 16.8 µM (inactive) in assay [11]; 20.3 µM (inactive) in assay [12]. The GI50 was 17.7 µM (inactive) in assay [13]; 16.3 µM (inactive) in assay [14]; 18.7 µM (inactive) in [15]; 17.5 µM (inactive) in assay [16]; 16.7 µM (inactive) in assay [17]; 16.8 µM (inactive) in assay [20]. Further, the GI50 in assay [18] was 15.1 µM (inactive).

Consider `c1ccc(-c2nc(-c3ccccc3SSc3ccccc3-c3nc(-c4ccccc4)nn3-c3ccccc3)n(-c3ccccc3)n2)cc1`, for which the GI50 in [1], in assay [2], in assay [3], in assay [4], in [5] and in assay [6] was > 100 µM (inactive) each time. For the same compound, the GI50 in [7], in assay [8], in assay [9], in assay [10], in [11] and in assay [12] was > 100 µM (inactive) in each case. Further, the GI50 in assay [13], in [14], in [16], in [17], in [20] and in assay [19] was > 100 µM (inactive) throughout. Moreover, in assay [18], the GI50 was > 100 µM (inactive).
